In ChEMBL document CHEMBL3297734, “Cationic lipid-conjugated dexamethasone as a selective antitumor agent” (Eur J Med Chem, 2014):
Activity calls are given as the source filed them. The calls are words filed in the database; no cut-off is given here.

What was measured:
CHO [1] = assay: Cytotoxicity against CHO cells after 72 hrs by MTT assay; type: cell-based; conditions: Cricetulus griseus
CHO [2] = assay: Induction of apoptosis in CHO cells assessed as necrotic cells at 10 uM after 48 hrs using FITC-annexin V-FITC/propidium iodide by flow cytometry (Rvb =6.6%); type: cell-based, Cricetulus griseus; conditions: chinese hamster
B16-F10 [3] = assay: Induction of apoptosis in mouse B16F10 cells assessed as increase in ratio of BAX/Bcl2 expression at 10 uM after 48 hrs by Western blot analysis relative to untreated control; type: functional, cell-based
B16-F10 [4] = assay: Induction of apoptosis in mouse B16F10 cells assessed as late apoptotic cells at 10 uM after 48 hrs using FITC-annexin V-FITC/propidium iodide by flow cytometry (reference value: 2.5%); type: functional
MCF7 [5] = assay: Induction of apoptosis in human MCF7 cells assessed as viable cells at 10 uM after 48 hrs using FITC-annexin V-FITC/propidium iodide by flow cytometry (reference value: 86.4%); type: functional; conditions: MCF7, 48 h, read-out: Activity
HEK-293T [6] = assay: Cytotoxicity against HEK293T cells after 72 hrs by MTT assay; type: cell-based; conditions: Homo sapiens
[7] = Cytotoxicity against mouse fibroblasts after 72 hrs by MTT assay; type: cell-based; conditions: Fibroblast
B16-F10 [8] = assay: Induction of apoptosis in mouse B16F10 cells assessed as early apoptotic cells at 10 uM after 48 hrs using FITC-annexin V-FITC/propidium iodide by flow cytometry (reference value: 0.7%); type: functional
MCF7 [9] = assay: Induction of apoptosis in human MCF7 cells assessed as late apoptotic cells at 10 uM after 48 hrs using FITC-annexin V-FITC/propidium iodide by flow cytometry (reference value: 3.5%); type: functional
HEK-293T [10] = assay: Induction of apoptosis in HEK293T cells assessed as early apoptotic cells at 10 uM after 48 hrs using FITC-annexin V-FITC/propidium iodide by flow cytometry (reference value: 0.3%); type: cell-based; conditions: human
MCF7 [11] = assay: Induction of apoptosis in human MCF7 cells assessed as necrotic cells at 10 uM after 48 hrs using FITC-annexin V-FITC/propidium iodide by flow cytometry (reference value: 7.1%); type: functional
CHO [12] = assay: Induction of apoptosis in CHO cells assessed as late apoptotic cells at 10 uM after 48 hrs using FITC-annexin V-FITC/propidium iodide by flow cytometry (reference value: 0%); type: cell-based, Cricetulus griseus; conditions: chinese hamster
HEK-293T [13] = assay: Induction of apoptosis in HEK293T cells assessed as late apoptotic cells at 10 uM after 48 hrs using FITC-annexin V-FITC/propidium iodide by flow cytometry (reference value: 0.4%); type: cell-based; conditions: human
[14] = Induction of apoptosis in HEK293T cells assessed as viable cells at 10 uM after 48 hrs using FITC-annexin V-FITC/propidium iodide by flow cytometry (reference value: 98.6%); type: cell-based, HEK-293T; conditions: human, read-out: Activity
B16-F10 [15] = assay: Antitumor activity against mouse B16F10 cells xenografted in C57BL/6 mouse assessed as apoptotic regions at 20 mg/kg, ip measured after 24 days of tumor inoculation by TUNEL assay; type: functional, organism-based; parameters: dose 20 mg/kg
CHO [16] = assay: Induction of apoptosis in CHO cells assessed as early apoptotic cells at 10 uM after 48 hrs using FITC-annexin V-FITC/propidium iodide by flow cytometry (reference value: 0.1%); type: cell-based, Cricetulus griseus; conditions: chinese hamster
MCF7 [17] = assay: Induction of apoptosis in human MCF7 cells assessed as early apoptotic cells at 10 uM after 48 hrs using FITC-annexin V-FITC/propidium iodide by flow cytometry (reference value: 3%); type: functional
[18] = Anticancer against mouse B16F10 cells after 72 hrs by MTT assay; type: functional, cell-based; conditions: B16-F10, 72 h
A549 = assay: Anticancer against human A549 cells after 72 hrs by MTT assay; type: functional, cell-based; conditions: A549, 72 h
MCF7 [19] = assay: Anticancer against human MCF7 cells after 72 hrs by MTT assay; type: functional, cell-based; conditions: MCF7, 72 h
B16-F10 [20] = assay: Antitumor activity against mouse B16F10 cells xenografted in C57BL/6 mouse assessed as inhibition tumor growth at 20 mg/kg, ip measured after 24 days of tumor inoculation; type: functional, organism-based; parameters: dose 20 mg/kg
B16-F10 [21] = assay: Antitumor activity against mouse B16F10 cells xenografted in C57BL/6 mouse assessed as apoptotic regions at 20 mg/kg, ip measured after 24 days of tumor inoculation by VE-cadherin; type: functional, organism-based; parameters: dose 20 mg/kg
[22] = Induction of apoptosis in CHO cells assessed as viable cells at 10 uM after 48 hrs using FITC-annexin V-FITC/propidium iodide by flow cytometry (reference value: 93.3%); type: cell-based, Cricetulus griseus; conditions: chinese hamster, read-out: Activity
B16-F10 [23] = assay: Induction of apoptosis in mouse B16F10 cells assessed as viable cells at 10 uM after 48 hrs using FITC-annexin V-FITC/propidium iodide by flow cytometry (reference value: 95.1%); type: functional; conditions: B16-F10, 48 h, read-out: Activity
HEK-293T [24] = assay: Induction of apoptosis in HEK293T cells assessed as necrotic cells at 10 uM after 48 hrs using FITC-annexin V-FITC/propidium iodide by flow cytometry (reference value: 0.7%); type: cell-based; conditions: human
B16-F10 [25] = assay: Induction of apoptosis in mouse B16F10 cells assessed as necrotic cells at 10 uM after 48 hrs using FITC-annexin V-FITC/propidium iodide by flow cytometry (reference value: 1.7%); type: functional
B16-F10 [26] = assay: Induction of apoptosis in mouse B16F10 cells assessed as up-regulation of Smac/Diablo at 10 uM after 48 hrs by Western blot analysis; type: functional, cell-based
B16-F10 [27] = assay: Induction of apoptosis in mouse B16F10 cells assessed as down-regulation of JAK3/STAT3 at 10 uM after 48 hrs by Western blot analysis; type: functional, cell-based
B16-F10 [28] = assay: Antitumor activity against mouse B16F10 cells xenografted in C57BL/6 mouse assessed as down-regulation of p-Mdm2 in tumor at 20 mg/kg, ip measured after 24 days of tumor inoculation by Western blot analysis; type: functional, organism-based; parameters: dose 20 mg/kg
B16-F10 [29] = assay: Induction of apoptosis in mouse B16F10 cells assessed as down-regulation of XIAP at 10 uM after 48 hrs by Western blot analysis; type: functional, cell-based
B16-F10 [30] = assay: Cytotoxicity against mouse B16F10 cells transfected with GR-siRNA assessed as cell viability after 48 hrs by flow cytometry; type: functional, cell-based
B16-F10 [31] = assay: Cytotoxicity against mouse B16F10 cells assessed as cell viability after 48 hrs by flow cytometry in presence of RU-486 GR antagonist; type: functional, cell-based
B16-F10 [32] = assay: Induction of apoptosis in mouse B16F10 cells assessed as p53 up-regulation at 10 uM after 48 hrs by flow cytometry; type: functional, cell-based
B16-F10 [33] = assay: Induction of apoptosis in mouse B16F10 cells assessed as up-regulation of caspase 7 at 10 uM after 48 hrs by Western blot analysis; type: functional, cell-based
B16-F10 [34] = assay: Induction of apoptosis in mouse B16F10 cells assessed as caspase 9 activation at 10 uM after 48 hrs by Western blot analysis; type: functional, cell-based
B16-F10 [35] = assay: Induction of apoptosis in mouse B16F10 cells assessed as caspase 3 activation at 10 uM after 48 hrs by Western blot analysis; type: functional, cell-based
B16-F10 [36] = assay: Antitumor activity against mouse B16F10 cells xenografted in C57BL/6 mouse assessed as reduction in angiogenesis in tumor measured as VEGRF2 expression at 20 mg/kg, ip measured after 24 days of tumor inoculation by microscopy relative to untreated control; type: functional, organism-based; parameters: dose 20 mg/kg
B16-F10 [37] = assay: Induction of apoptosis in mouse B16F10 cells assessed as Akt destruction at 10 uM after 48 hrs by Western blot analysis; type: functional, cell-based
MCF7 [38] = assay: Cytotoxicity against human MCF7 cells transfected with GR-siRNA assessed as cell viability after 48 hrs by flow cytometry; type: functional, cell-based
B16-F10 [39] = assay: Antitumor activity against mouse B16F10 cells xenografted in C57BL/6 mouse assessed as up-regulation of P53 in tumor at 20 mg/kg, ip measured after 24 days of tumor inoculation by Western blot analysis; type: functional, organism-based; parameters: dose 20 mg/kg

Compound	IC50 (CHO [1]) [µM]	Activity (CHO [2]) [%]	Activity (B16-F10 [3])	Activity (B16-F10 [4]) [%]	viability at 10 µM (MCF7 [5]) [%]	IC50 (HEK-293T [6]) [µM]	IC50 [7] [µM]	Activity (B16-F10 [8]) [%]	Activity (MCF7 [9]) [%]	Activity (HEK-293T [10]) [%]	Activity (MCF7 [11]) [%]	Activity (CHO [12]) [%]	Activity (HEK-293T [13]) [%]	viability at 48 h, 10 µM [14] [%]	Activity (B16-F10 [15])	Activity (CHO [16]) [%]	Activity (MCF7 [17]) [%]	IC50 [18] [µM]	IC50 (A549) [µM]	IC50 (MCF7 [19]) [µM]	other results
C[C@@H]1C[C@H]2[C@@H]3CCC4=CC(=O)C=C[C@]4(C)[C@@]3(F)[C@@H](O)C[C@]2(C)[C@@]1(O)C(=O)CO [DEXAMETHASONE]	> 20	4.2	Active	3.7	82.8	> 20	> 15	0.8	5.9	0.1	9.5	0	0.1	94.4	Active	0	2.4	> 20	> 15	> 15	inhibition (B16-F10 [20]): Active; Activity (B16-F10 [21]): Active; viability at 48 h, 10 µM [22]: 95.8%; viability at 10 µM (B16-F10 [23]): 94.1%; Activity (HEK-293T [24]): 0.4%; Activity (B16-F10 [25]): 1.3%
CCCCCCCCCCCC[N+](C)(CCCCCCCCCCCC)CCNC(=O)[C@@]1(O)[C@H](C)C[C@H]2[C@@H]3CCC4=CC(=O)C=C[C@]4(C)[C@@]3(F)[C@@H](O)C[C@@]21C	> 20	–	–	–	–	> 15	> 15	–	–	–	–	–	–	–	–	–	–	> 15	14	13.5	–
CCCCCCCC[N+](C)(CCCCCCCC)CCNC(=O)[C@@]1(O)[C@H](C)C[C@H]2[C@@H]3CCC4=CC(=O)C=C[C@]4(C)[C@@]3(F)[C@@H](O)C[C@@]21C.[Cl-]	> 15	5.9	Active	12.5	61.5	> 15	> 15	27	7.8	0.1	13.1	0	0.1	99.3	Active	0	18.6	6	7.2	6.5	Activity (B16-F10 [26]): Active; Activity (B16-F10 [27]): Active; Activity (B16-F10 [28]): Active; Activity (B16-F10 [29]): Active; Activity (B16-F10 [30]): inactive; Activity (B16-F10 [31]): inactive; Activity (B16-F10 [32]): Active; Activity (B16-F10 [33]): Active; Activity (B16-F10 [34]): Active; Activity (B16-F10 [35]): Active; inhibition (B16-F10 [36]): Active; inhibition (B16-F10 [20]): Active; Activity (B16-F10 [21]): inactive; viability at 48 h, 10 µM [22]: 94.1%; viability at 10 µM (B16-F10 [23]): 58%; Activity (HEK-293T [24]): 0.5%; Activity (B16-F10 [37]): Active; Activity (MCF7 [38]): inactive; Activity (B16-F10 [39]): Active; Activity (B16-F10 [25]): 2.5%
CCCC[N+](C)(CCCC)CCNC(=O)[C@@]1(O)[C@H](C)C[C@H]2[C@@H]3CCC4=CC(=O)C=C[C@]4(C)[C@@]3(F)[C@@H](O)C[C@@]21C	> 20	–	–	–	–	> 15	> 20	–	–	–	–	–	–	–	–	–	–	> 20	> 15	> 15	–
CCCCCCCCCCCCCCCC[N+](C)(CCCCCCCCCCCCCCCC)CCNC(=O)[C@@]1(O)[C@H](C)C[C@H]2[C@@H]3CCC4=CC(=O)C=C[C@]4(C)[C@@]3(F)[C@@H](O)C[C@@]21C	> 15	–	–	–	–	> 20	> 15	–	–	–	–	–	–	–	–	–	–	> 15	14.8	> 15	–
CC[N+](C)(CC)CCNC(=O)[C@@]1(O)[C@H](C)C[C@H]2[C@@H]3CCC4=CC(=O)C=C[C@]4(C)[C@@]3(F)[C@@H](O)C[C@@]21C	> 15	–	–	–	–	> 20	> 20	–	–	–	–	–	–	–	–	–	–	> 20	> 15	> 15	–
